Results on one molecule are retold here after patent US20100196464A1, “ORLISTAT PHARMACEUTICAL FORMULATIONS” (DR. REDDY'S LABORATORIES LIMITED, priority 2007, published 2010).

For series [1] the following is noted: physiological pH range; cited from earlier work.
Series [2] can be described thus: Bulk density and tapped density. The class given is physicochemical. The settings on record: orlistat used in the formulation of Example 6. From the text: Other important physicochemical characteristics of powders are the density properties such as bulk and tapped density, weight variation and flow properties such as angle of repose. Bulk density is the undisturbed packing density of that substance and tapped bulk density relates to the packing density after tapping a bed of substance until no change in the packing density is seen. Bulk density and tapped density, can be determined using compendial bulk density apparatus, such as the method given in Test 616 “Bulk Density and Tapped Density,” United States Pharmacopeia 29, United States Pharmacopeial Convention, Inc., Rockville, Md., 2005 (“USP”). Weight variation can be determined using the method given in United States Pharmacopeia 29.

For series [3] the following is noted: cited from earlier work.
Series [4] in a line: Particle size distribution. The series is classed as physicochemical. From the text: The term “average particle size” refers to particle sizes represented by D(0.5), wherein 50% of particles in a powder have sizes greater than, and 50% of particles have sizes less than, a specified value.
Various parameters impacting the preparation of solid oral dosage forms include the physical properties of active ingredients as well as those of the final blends of active ingredients with excipients, wherein the physical properties include flow properties, particle sizes (such as determined by sieve analyzers, electrical conductance instruments such as a Coulter counter, and laser light diffraction particle size analyzers such as the instruments available from Malvern Instruments, Ltd., Malvern, Worcestershire, United Kingdom), bulk densities and tapped densities, compressibility indexes, Hausner ratios (determined by USP density apparatus), flow properties (such as determined by Flowdex apparatus), etc.
The percent of particles with different dimensions that exist in a powder is called the particle size distribution. It is represented in certain ways. Particle size is the maximum dimension of a particle, normally expressed in units of μm. Particle size distributions can be expressed in terms of D(0.1), D(0.5), D(0.9) and D [4,3]. The D(0.1), D(0.5) and D(0.9) represent the 10th, median or the 50th percentile, and the 90th percentile of the particle size distribution, respectively. They can be expressed as volume, weight, or surface percentages. For example when measured by volume, D(0.1), D(0.5), D(0.9) is a value of the distribution such that 10%, 50%, 90% by volume of the particles have a size of this value or less, or is the percentage of particles smaller than that size. D(0.5) is also known as median diameter of particle. It is one of the important parameters representing characteristics of particle of powder. For a sample, if D(0.5)=5 μm, it means that 50% of the particles are smaller than 5 μm. Similarly, if D(0.1)=5 μm, 10% by volume of the particles are less than or equal to 5 μm, and if D(0.9)=5 μm, 90% of the particles are less than or equal to 5 μm. D[4,3] is the volume moment mean of the particles or the volume weighted particle size.

Where [5] appears, read: orlistat used in the formulation of Example 1.
Setting [6] is: orlistat used in the formulation of Example 6.

With `CCCCCCCCCCC[C@@H](C[C@@H]1OC(=O)[C@H]1CCCCCC)OC(=O)[C@H](CC(C)C)NC=O` [Orlistat, (S)-1-[[(2S,3S)-3-hexyl-4-oxo-2-oxetanyl]methyl]-dodecyl ester], in series [1], the pKa entry is on record as “no pKa within the physiological pH range”. In series [2], this molecule yielded a Bulk density of 0.424 g/mL and a Tapped density of 0.571 g/mL. Also, in series [3] (chloroform), the Solubility in chloroform entry is given as “freely soluble”. For the same molecule, the Solubility in ethanol entry in series [3] (ethanol) is on record as “very soluble”. Also, the Solubility in methanol result in series [3] (methanol) was “very soluble”. Moreover, the Solubility in water entry in series [3] (water) is given as “practically insoluble”. In series [4] (setting [5]), the “D(0.1)” value turned out to be 1.8 μm, the “D(0.5)” value was 8.6 μm and the “D(0.9)” value worked out at 24.5 μm. In series [4] (setting [6]), the “D(0.1)” value was 18.7 μm, the “D(0.5)” value is recorded as 84.2 μm and the “D(0.9)” value worked out at 171.8 μm.
